# Experimental data from patent US20240067693A1, “POLYPEPTIDES AND USES THEREOF” (MEDIMMUNE LIMITED, priority 2020, published 2024).
# Numbered stars: 1 amine (or outer) side, 2 acyl side, 3 side chain; on linkers, the order of the positions; unused ones are H or OH. Bridge positions count the residues as written; N and C are the ends. Square brackets hold non-standard residues; d marks the D form. Side chains are listed from the residue outwards. Peptide text beside a SMILES is read from it. * marks the point of attachment. C20 diacid = O=C(O)CCCCCCCCCCCCCCCCCCC(=O)*; C18 diacid = O=C(O)CCCCCCCCCCCCCCCCC(=O)*; γGlu = O=C(O)[C@H](CCC(=O)[*:2])N[*:1]; AEEA = NCCOCCOCC(=O)O; Aib = CC(C)(N)C(=O)O
# Tests used:
# [1] = tested on: lean rats; test: Rat acute food intake study; type: in vivo; settings: lean male Sprague Dawley rats, 20 nmol/kg subcutaneously
# Outline: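 Male Sprague Dawley rats (n=7/group), fasted 6 h, received 20 nmol/kg test compound or 60 nmol/kg pramlintide subcutaneously 30 min before food return at dark onset. Food intake recorded automatically in home cages over 3 days, binned hourly and analysed as cumulative dark-period intake; body weight taken daily.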
# [2] = target: T1, human amylin receptor (calcitonin receptor co-expressed with receptor activity modifying protein, RAMP3) (hAMYR3) (Homo sapiens, UniProt O60896+P30988); test: cAMP production in 1321N1 cells with stable recombinant expression of human amylin receptor (hAMYR3); type: cell-based; settings: for Ratio (selectivity hAMYR vs hCTR, ratio of EC50 values at the two receptors): EC50 hCTR / EC50 hAMYR3; for EC50: cAMP, 1321N1 cells, assay buffer with 0.1% BSA, read-out: EC50 (pM) hAMYR3
# T1 construct: expressed in transfected cells
# T1 sequence (P30988 25-474): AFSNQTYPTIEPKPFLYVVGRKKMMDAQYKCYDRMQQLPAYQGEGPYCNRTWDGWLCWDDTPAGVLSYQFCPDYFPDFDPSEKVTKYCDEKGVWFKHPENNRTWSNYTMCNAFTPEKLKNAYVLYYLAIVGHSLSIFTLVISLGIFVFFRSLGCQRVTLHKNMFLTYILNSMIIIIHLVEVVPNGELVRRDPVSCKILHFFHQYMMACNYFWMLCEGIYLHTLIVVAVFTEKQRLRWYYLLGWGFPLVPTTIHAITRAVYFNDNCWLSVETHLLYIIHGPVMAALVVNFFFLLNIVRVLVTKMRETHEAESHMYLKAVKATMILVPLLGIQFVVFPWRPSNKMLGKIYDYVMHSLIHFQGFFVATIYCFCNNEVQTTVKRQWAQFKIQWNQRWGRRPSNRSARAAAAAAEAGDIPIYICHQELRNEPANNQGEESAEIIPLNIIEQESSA
# T1 sequence (O60896 24-148 partner): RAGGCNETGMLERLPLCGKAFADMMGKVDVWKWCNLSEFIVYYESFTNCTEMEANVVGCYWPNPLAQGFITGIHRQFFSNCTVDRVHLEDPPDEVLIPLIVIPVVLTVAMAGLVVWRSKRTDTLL
# Outline: (§1)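 EC50 values come from 4-parameter logistic fits of HTRF cAMP signal, normalised to maximal calcitonin or amylin effect. Peptides were tested in duplicate for 30 min at RT in IBMX-containing (0.5 mM) BSA/HEPES buffer pH 7.4 on stable 1321N1 (human CTR, AMYR3) or HEK (rat CTR, AMYR3) lines.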
# [3] = Thioflavin T fibrillation assay; type: physicochemical; settings: for fibril-forming tendency: ThT assay, 1 mg/mL, pH 4.0, 37 °C, compared to pramlintide; for Time taken to detect increase in fluorescence intensity: ThT fibrillation assay, peptide 1 mg/mL in 25 mM sodium acetate buffer pH 4.0, 6 days at 37 °C with shaking, >144 h = no increase
# Outline: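 Peptides at 1 mg/mL in 25 mM sodium acetate pH 4.0 with ThT (from 0.25 mM stock), incubated 6 days at 37 °C with intermittent orbital shaking at 500–750 rpm. Fluorescence (ex 444/em 480 nm) read every 30 min; value is average time to a rise in baseline-corrected signal.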
# [4] = target: T2, human calcitonin receptor (hCTR) (Homo sapiens, UniProt P30988); test: cAMP production in 1321N1 cells with stable recombinant expression of human calcitonin receptor (hCTR); type: cell-based; settings: cAMP, 1321N1 cells, assay buffer with 0.1% BSA; read-out: EC50 (pM) hCTR
# T2 construct: expressed in transfected cells
# T2 sequence (P30988 25-474): T1 sequence (P30988 25-474)
# Outline: as §1
"Ratio (selectivity hAMYR vs hCTR, ratio of EC50 values at the two receptors) [2]",EC50 [2] [pM],fibril-forming tendency [3],Time taken to detect increase in fluorescence intensity [3] [h],EC50 [4] [pM],SMILES,Cummulative food intake (% vehicle treated intake) At 12 h [1] [% vehicle treated intake],Cummulative food intake (% vehicle treated intake) At 24 h [1] [% vehicle treated intake],Cummulative food intake (% vehicle treated intake) At 48 h [1] [% vehicle treated intake]
2,861,increases the fibril-forming tendency,<5,1340,CC[C@H](C)[C@H](NC(=O)[C@@H]1CCCN1C(=O)CNC(=O)[C@H](Cc1ccccc1)NC(=O)[C@H](CC(N)=O)NC(=O)[C@H](CC(N)=O)NC(=O)[C@H](CO)NC(=O)[C@H](CO)NC(=O)[C@H](Cc1c[nH]cn1)NC(=O)[C@@H](NC(=O)[C@H](CC(C)C)NC(=O)[C@H](Cc1ccccc1)NC(=O)[C@H](CC(N)=O)NC(=O)[C@H](C)NC(=O)[C@H](CC(C)C)NC(=O)[C@H](CCCNC(=N)N)NC(=O)[C@H](CCC(N)=O)NC(=O)[C@@H](NC(=O)[C@H](C)NC(=O)[C@@H]1CSSC[C@H](NC(=O)[C@H](CCCCN)NC(=O)CC[C@H](NC(=O)CCCCCCCCCCCCCCCCCCC(=O)O)C(=O)O)C(=O)N[C@@H](CC(N)=O)C(=O)N[C@@H]([C@@H](C)O)C(=O)N[C@@H](C)C(=O)N[C@@H]([C@@H](C)O)C(=O)N1)[C@@H](C)O)C(C)C)C(=O)N[C@@H](CC(C)C)C(=O)N1CCC[C@H]1C(=O)N1CCC[C@H]1C(=O)N[C@H](C(=O)N[C@@H](CC(N)=O)C(=O)N[C@H](C(=O)NCC(=O)N[C@@H](CO)C(=O)N[C@@H](CC(N)=O)C(=O)N[C@H](C(=O)N[C@@H](Cc1ccc(O)cc1)C(N)=O)[C@@H](C)O)C(C)C)[C@@H](C)O [Peptide 112] ({C20 diacid-γGlu}-KCNTATCATQRLANFLVHSSNNFGPILPPTNVGSNTY-NH2; disulfide 2-7),15.8,15.9,22.1
16,1170,increases the fibril-forming tendency,<5,18500,CC[C@H](C)[C@H](NC(=O)[C@@H]1CCCN1C(=O)CNC(=O)[C@H](Cc1ccccc1)NC(=O)[C@H](CC(N)=O)NC(=O)[C@H](CC(N)=O)NC(=O)[C@H](CO)NC(=O)[C@H](CO)NC(=O)[C@H](Cc1c[nH]cn1)NC(=O)[C@@H](NC(=O)[C@H](CC(C)C)NC(=O)[C@H](Cc1ccccc1)NC(=O)[C@H](CC(N)=O)NC(=O)[C@H](C)NC(=O)[C@H](CC(C)C)NC(=O)[C@H](CCCNC(=N)N)NC(=O)[C@H](CCC(N)=O)NC(=O)[C@@H](NC(=O)[C@H](C)NC(=O)[C@@H]1CSSC[C@H](NC(=O)[C@H](CCCCN)NC(=O)COCCOCCNC(=O)COCCOCCNC(=O)CC[C@H](NC(=O)CCCCCCCCCCCCCCCCCCC(=O)O)C(=O)O)C(=O)N[C@@H](CC(N)=O)C(=O)N[C@@H]([C@@H](C)O)C(=O)N[C@@H](C)C(=O)N[C@@H]([C@@H](C)O)C(=O)N1)[C@@H](C)O)C(C)C)C(=O)N[C@@H](CC(C)C)C(=O)N1CCC[C@H]1C(=O)N1CCC[C@H]1C(=O)N[C@H](C(=O)N[C@@H](CC(N)=O)C(=O)N[C@H](C(=O)NCC(=O)N[C@@H](CO)C(=O)N[C@@H](CC(N)=O)C(=O)N[C@H](C(=O)N[C@@H](Cc1ccc(O)cc1)C(N)=O)[C@@H](C)O)C(C)C)[C@@H](C)O [Peptide 113] ({C20 diacid-γGlu-AEEA-AEEA}-KCNTATCATQRLANFLVHSSNNFGPILPPTNVGSNTY-NH2; disulfide 2-7),69.5,65.8,77.9
10.4,553,–,>144,5750,CC[C@H](C)[C@H](NC(=O)[C@@H]1CCCN1C(=O)CNC(=O)[C@H](Cc1ccccc1)NC(=O)[C@H](CC(N)=O)NC(=O)[C@H](CC(N)=O)NC(=O)[C@H](CO)NC(=O)[C@H](CO)NC(=O)[C@H](Cc1c[nH]cn1)NC(=O)C(C)(C)NC(=O)[C@H](CC(C)C)NC(=O)[C@H](Cc1ccccc1)NC(=O)[C@H](CC(N)=O)NC(=O)[C@H](C)NC(=O)[C@H](CC(C)C)NC(=O)[C@H](CCCNC(=N)N)NC(=O)[C@H](CCC(N)=O)NC(=O)[C@@H](NC(=O)[C@H](C)NC(=O)[C@@H]1CSSC[C@H](NC(=O)[C@H](CCCCN)NC(=O)[C@@H](N)CCCCNC(=O)CC[C@H](NC(=O)CCCCCCCCCCCCCCCCC(=O)O)C(=O)O)C(=O)N[C@@H](CC(N)=O)C(=O)N[C@@H]([C@@H](C)O)C(=O)N[C@@H](C)C(=O)N[C@@H]([C@@H](C)O)C(=O)N1)[C@@H](C)O)C(=O)N[C@@H](CC(C)C)C(=O)N1CCC[C@H]1C(=O)N1CCC[C@H]1C(=O)N[C@H](C(=O)N[C@@H](CC(N)=O)C(=O)N[C@H](C(=O)NCC(=O)N[C@@H](CO)C(=O)N[C@@H](CC(N)=O)C(=O)N[C@H](C(=O)N[C@@H](Cc1ccc(O)cc1)C(N)=O)[C@@H](C)O)C(C)C)[C@@H](C)O [Peptide 129] (H-K([γGlu-C18 diacid])KCNTATCATQRLANFL[Aib]HSSNNFGPILPPTNVGSNTY-NH2; disulfide 3-8; N-terminus assumed),29,32.4,51
